Experimental data: patent US6034096A, “Compounds with anti-inflammatory and immunosuppressive activities” (Italfarmaco S.p.A., priority 1996, dated 2000)
Where a name gives a salt, the structure may show the parent alone.

Legend:
serum TNFα = test: In vivo LPS-induced TNFα production (serum TNFα, ELISA); parameters: species or system Male BALB/c mice; conditions: serum 2 h after LPS
Protocol: 2. In vivo LPS-induced TNFα production Male BALB/c mice (18-20 g) were obtained from Harlan-Nossan (Correzzana, Italy); Lipopolysaccharide (LPS) from S. enteritidis (code L-6011) was from Sigma (St. Louis, Mo.); Dexamethasone (Soldesam) from Laboratorio Farmacologico Milanese (Caronno P., Italy).
Mice were treated i.p. with LPS (S. enteritidis, 7.5 mg/kg). Dexamethasone was administered i.p. 30 min. before LPS. Compounds were administered orally 90 min. before LPS. Two hours after LPS administration the anaesthetized animals were sacrificed, blood was collected by cardiac puncture and allowed to coagulate. Serum TNFα was measured by ELISA with "mouse Reagent Sets" (Genzyme, Cambridge, Mass.) according to the manufacturer's instructions and using mouse recombinant TNFα as standard.

human IL-1β = test: In vitro cytokines production test (LPS-stimulated human PBMC, IL-1β ELISA); assay type: cell-based; conditions: 10 ng/ml LPS, 60 min pretreatment, 20 hours culture, read-out: IC50 (inhibition of IL-1β production)
Protocol: 1. In vitro cytokines production test
The compounds of the invention were tested by in particular on the production of human IL-1β. Mononuclear cells (PBMC) were prepared from peripheral blood ("buffy coat") from healthy donors, by centrifugation over density gradient Ficoll-Hypaque (Biochrom KG, Berlin, Germany). The cells (2,5×10^6 for ml) were cultured at 37° C. under humid atmosphere containing 5% CO2 in 96-wells plates (Nunc) at a final volume of 200 μl. […] The production of cytokines was induced by stimulating the cells with 10 ng/ ml of LPS (lipopolysaccharide) from E. coli serotype 055:B5 (Sigma Chemical Co., St. Louis. Mo.). The cells were pretreated with the compounds of the intention dissolved in DMSO (final concentration: 0.05% […]) for 60 minutes. The compounds and LPS were present during the whole 20 hours of culture. As the negative control, not-stimulated cells were used. At the end of the test, supernatants were collected and the IL-1β production was tested by a specific ELISA assay ("sandwich-type antigen capture", R & D System, Minneapolis, Minn.; all of the tests were carried out in duplicate). A goat polyclonal serum specific for human IL-1β was used, purified by affinity, to cover the 96-wells microtitration plates (Nunc). After washing, the wells were incubated for 2 hours with 3% of boyine serum albumine (BSA) in buffered saline. Recombinant human IL-1β was used to obtain a standard curve for each test and the supernatant samples were diluted to 1/20 and 1/80 with PBS+0.1% of BSA. The plates were then incubated at 4° C. overnight. After washing, the secondary antibody was added, i.e. an anti- human lL-1β murine monoclonal antibody. After incubation and washing, a goat anti-murine Ig-G polyclonal antibody peroxidase-conjugated (Zymed) was added, then the chromogenic substrate tetramethylbenzidine dichloride (Sigma). The reaction was stopped with 4N H2 SO4 and the absorbance at 450 nm was measured with an automatic spectrophotometer (Perkin-Elmer).

[1] = 30 mg/kg, i.p. 30 min before LPS (7.5 mg/kg i.p.)
[2] = 5.0 ng/kg (so in the source), orally 90 min before LPS (7.5 mg/kg i.p.)
[3] = 0.5 mg/kg, orally 90 min before LPS (7.5 mg/kg i.p.)

C[C@@H]1C[C@H]2[C@@H]3CCC4=CC(=O)C=C[C@]4(C)[C@@]3(F)[C@@H](O)C[C@]2(C)[C@@]1(O)C(=O)CO [Dexamethasone, reference compound]
Inhibition (%) (serum TNFα; [1]): 90.2%
TNFα (serum TNFα; [1]): 112 pg/mL

O=C(CCCCc1ccccc1)Nc1ccc(C(=O)NO)cc1 [Example 1, 4-(5-Phenylpentanamido)benzohydroxamic acid]
IC50 (human IL-1β): 305 nM

O=C(NCc1ccc(C(=O)NO)cc1)OCC(c1ccccc1)c1ccccc1 [Example 2, 4-[2,2-(Diphenyl)ethoxycarbamoylmethyl]benzohydroxamic acid]
IC50 (human IL-1β): 163 nM

O=C(Nc1ccc(C(=O)NO)cc1)OCCC12CC3CC(CC(C3)C1)C2 [Example 3]
IC50 (human IL-1β): 531 nM

O=C(Nc1ccc(C(=O)NO)cc1)OCc1cccc2ccccc12 [Example 4]
IC50 (human IL-1β): 28 nM

O=C(Nc1ccc(C(=O)NO)cc1)OCC1CCc2ccccc2C1 (stereo not shown) [Example 5]
IC50 (human IL-1β): 137 nM

O=C(Nc1ccc(C(=O)NO)cc1)OCCCc1ccccc1 [Example 6]
IC50 (human IL-1β): 43 nM

O=C(Nc1ccc(C(=O)NO)cc1)OCc1ccc2ccccc2c1 [Example 7]
IC50 (human IL-1β): 12 nM

O=C(Nc1ccc(C(=O)NO)cc1)OC/C=C/c1ccccc1 [Example 8]
IC50 (human IL-1β): 29 nM

O=C(Nc1ccc(C(=O)NO)cc1)OC/C=C\c1ccccc1 [Example 9]
IC50 (human IL-1β): 72 nM

O=C(Nc1ccc(C(=O)NO)cc1)OCCC(c1ccccc1)c1ccccc1 [Example 10]
IC50 (human IL-1β): 101 nM

CCN(CC)Cc1ccc2cc(COC(=O)Nc3ccc(C(=O)NO)cc3)ccc2c1 [Example 12, hydrochloride]
Inhibition (%) (serum TNFα; [2]): 64.3%
TNFα (serum TNFα; [2]): 407 pg/mL
Inhibition (%) (serum TNFα; [3]): 55.0%
TNFα (serum TNFα; [3]): 514 pg/mL
IC50 (human IL-1β): 96 nM

CCCN(CCC)Cc1ccc2cc(COC(=O)Nc3ccc(C(=O)NO)cc3)ccc2c1 [Example 13, hydrochloride]
IC50 (human IL-1β): 166 nM

CCCCN(CCCC)Cc1ccc2cc(COC(=O)Nc3ccc(C(=O)NO)cc3)ccc2c1 [Example 14, hydrochloride]
IC50 (human IL-1β): 382 nM

CCN(CC)Cc1ccc(COC(=O)Nc2ccc(C(=O)NO)cc2)c2ccccc12 [Example 15, hydrochloride]
IC50 (human IL-1β): 14 nM

CCN(CC)Cc1ccc2cc(CNC(=O)Nc3ccc(C(=O)NO)cc3)ccc2c1 [Example 16, hydrochloride]
IC50 (human IL-1β): 10 nM

CC(C)N1Cc2ccccc2CC1COC(=O)NCc1ccc(C(=O)NO)cc1 (stereo not shown) [Example 17, 4-[N-isopropyl-1,2,3,4-tetrahydroisoquinol-3-yl)methyloxycarbamoylmethyl]benzohydroxamic acid hydrochloride]
IC50 (human IL-1β): 21 nM
